Experimental data reported in patent publication US5196412A, “Gallium compounds” (Johnson Matthey, Inc., priority 1991, dated 1993).
Like-named read-outs stand apart in the source and are kept apart here.

Assays:
[1] = pH 4.5-7; cited from earlier work
gastro-intestinal tract = conditions: pH 4.5-7; cited from earlier work
renal toxicity = conditions: cited from earlier work
[2] = system: cancer-associated hypercalcemia; conditions: cited from earlier work
bone = conditions: cited from earlier work
[3] = oral absorption of gallium in rats (4-hour plasma gallium AUC); type: in vivo, Male Sprague Dawley rats; conditions: rat, 0.067 mmol/kg, 0-4 hours, absorption from the intestine
Experimental: According to the invention, compounds were tested for oral absorption in rats. Male Sprague Dawley rats weighing 150-225 g were purchased from Harlan Sprague Dawley, Inc. (Indianapolis, Ind.). The gallium standard solution is from Aldrich Chemical Co (Milwaukee, Wis.). Metofane is a product from Pitman-Moore (Mundelein, Ill.), and all other chemicals are commercially available. Gallium test compounds were dissolved in 18 megaohm water (Millipore, Bedford, Mass.) or suspended in 0.5% carboxymethyl cellulose in 5% ethanol, if the compound was not water soluble. The suspensions were sonicated at room temperature for about 5 minutes. […]
Sutures were made with 3-4 stitches with 3-0 silk surgical thread (Ethicon Inc, Somerville, N.J.). […] The blood was placed in 1 ml Eppendorf tubes precoated with 50 μl heparin (1,000 U/ml and air dried, so there was no blood dilution involved. The plasma was recovered after the blood was centrifuged for 2 minutes in a Fischer Micro-centrifuge, Model 235B, and its gallium content measured by a Varian Flameless Atomic Absorption Spectrometer. The standard curve was linear in the gallium concentrations of 5-100 ng/ml. The data under the […] versus time curve (AUC) for 0-4 hours was estimated. […]

Structure (SMILES): [Ga+3] [gallium(III) aquo-ion]
- hydrolysis [1]: extensively hydrolysed to insoluble hydroxides
- absorption (gastro-intestinal tract): very poorly absorbed

Structure (SMILES): [Ga] [gallium]
- renal toxicity (renal toxicity; i.v. bolus): renal toxicity is dose-limiting
- renal toxicity (renal toxicity; seven day continuous i.v. infusion, cancer-associated hypercalcemia): showed no renal toxicity
- serum calcium ([2]; patients with hypercalcemia of malignancy): reduce serum calcium
- efficacy in cancer-associated hypercalcemia ([2]; seven day continuous i.v. infusion): effective
- bone strength (bone): increases bone strength
- resorption of calcium from bone (bone): inhibiting the resorption of calcium from bone

Structure (SMILES): O=[N+]([O-])[O-].O=[N+]([O-])[O-].O=[N+]([O-])[O-].[Ga+3] [Ga(NO3)3, gallium nitrate]
- 4-hour plasma gallium AUC [3]: 897 (ng//ml)h
